Results: patent publication US10940329B2, “Phosphor-containing drug activator activatable by a Monte Carlo derived x-ray exposure, system containing the activator, and methods for use” (IMMUNOLIGHT, LLC, priority 2016, dated 2021)

Legend:
[1] = tested on: CT2A (murine malignant glioma); test: Cell-Titer-Glo Luminescence Cell Viability Assay, UV activated psoralen; assay type: cell-based; conditions: FIG. 14A; psoralen 40 μM; UV light 0, 0.25, 0.5, 1.0 J/cm^2; N=4
Description: (§1) Other assays were used to provide independent complimentary information on cell viability, e.g. Methylene blue staining and ATP-induced Luminescence imaging (Cell-Titer-Glo® Luminescence Cell Viability Assay). The luminescence imaging permitted investigation of the cytotoxicity of psoralen activated directly with a UV lamp, and in the absence of phosphors and x-ray radiation.
(§2) FIG. 14B presents data on CT2A malignant glioma cells, for a range of treatment parameters including variable x-ray dose (0, 0.67 and 1 Gy), phosphor concentration (50 or 100 μg) and psoralen concentration (8-MOP) at 10, 20 and 40 μM respectively. […] N=4 for each cell line at each UV light condition (0, 0.25, 0.5, 1.0 J/cm^2). The psoralen concentration was 40 μM. For FIG. 14B, in CT2A cells, the treatment cytotoxicity increases with X-ray dose (0, 0.67 and 1.00 Gy respectively), concentration of 8-MOP psoralen (10, 20 and 40 μM respectively), and phosphor (50 and 100 μg/ml) respectively (p values shown thereon).

4T1 = test: as above; assay type: cell-based, murine; conditions: FIG. 14A; psoralen 40 μM; UV light 0, 0.25, 0.5, 1.0 J/cm^2; N=4
Description: as §1, §2

[2] = tested on: KP-B (sarcoma) cell lines; test: as above; assay type: cell-based, mice; conditions: FIG. 14A; psoralen 40 μM; UV light 0, 0.25, 0.5, 1.0 J/cm^2; N=4
Description: The mouse breast cancer cell line 4T1 was purchased from ATCC. 4T1-HER2 was provided by Dr. Michael Kershaw (Cancer Immunology Program, Peter MacCallum Cancer Centre, Victoria, Australia) and maintained in DMEM with penicillin/streptomycin and 10% FBS The Sarcoma KP-B cell lines were derived from primary tumors LSL-Kras; p53 Flox/Flox mice (45).
as §1, §2

4T1-HER2 cells [3] = test: Methylene blue staining for cell viability; assay type: cell-based, murine; conditions: FIGS. 13C, 13D; individual components; 1 Gy of 80 kVp x-rays; UVADEX 10 uM 8-MOP equivalent, phosphor 25, 50, 100 μg/mL
Description: Methylene blue staining of viable 4T1-HER2 cells confirms that the device works well according to the target parameters identified above. A plate having six (6) wells is subjected to treatment. […] One well (#1) is the control. One well (#2) has phosphor coated with EC and DLC (H100). One well (#3) has phosphor coated with EC (but no DLC). One well (#4) has drug UVADEX but no phosphors. One well (#5) has drug UVADEX and phosphors coated with EC and DLC. One well (#6) has drug UVADEX and phosphors coated with EC and no DLC.
All wells were exposed to the x-ray conditions noted above. […] One added benefit to a dual coating is redundancy in safety of the treatment.
as §1
FIGS. 13A-13D illustrates the efficacy of treatment in-vitro in 4T1-HER2 cells, utilizing a regimen of 1/10-diluted UVADEX (with equivalent of 10 uM 8-MOP), 50 μg/mL phosphor 1 Gy of 80 kVp x-rays. FIG. 13A presents the cell viability data for three treatment conditions: UVADEX alone, phosphors alone, and the combination of UVADEX and phosphors. […]

4T1-HER2 cells [4] = test: cell viability by Guava flow cytometry (forward scattering); assay type: cell-based, murine; conditions: FIG. 13A; UVADEX alone, 10 μM 8-MOP equivalent; 1 Gy of 80 kVp; p=0.97
Description: (§3) As part of the baseline study, in-vitro studies were conducted on plated cells following standard procedures. Cells were maintained in RPMI-1640 supplemented with 10% fetal bovine serum and L-glutamine from GIBCO (Grand Island, N.Y.) growing in a humidified atmosphere of 5% CO2. After incubation, cells were trypsinized and plated evenly onto twelve 12-well plates for 24 hours. About 20 minutes prior to irradiation, the 12 wells of each plate were exposed to the following combinations of additives: (1) control—cells only with no additives, (2) UVADEX only, (3) phosphors only, (4) UVADEX+ phosphors. Each plate had 12 wells with three wells for each of the four treatment arms. […]
(§4) Two primary flow cytometry analyses were used, both determined at 48 hours after treatment. […] The first analysis evaluated was metabolic cell viability (herein referred to as cell viability) calculated from the number of whole cells per well as determined using forward scattering (FSC). […]
(§5) FIGS. 13A-13D illustrates the efficacy of treatment in-vitro in 4T1-HER2 cells, utilizing a regimen of 1/10-diluted UVADEX (with equivalent of 10 uM 8-MOP), 50 μg/mL phosphor 1 Gy of 80 kVp x-rays. […] In FIG. 13A, cell viability after treatment (10 μM 8-MOP equivalent dilution of UVADEX, 50 μg/mL phosphor, 1 Gy of 80 kVp radiation) as determined by Guava flow cytome cytometry is depicted. […]

4T1-HER2 cells [5] = test: Annexin V positivity by flow cytometry; assay type: cell-based, murine; conditions: FIG. 13B; either with or without x-ray (p values of 0.90 and 0.09)
Description: as §3, §4, §5

| Compound | viable cells [1] | viable cells (4T1) | viable cells [2] | cell viability by methyl blue staining (4T1-HER2 cells [3]) | effect of addition of radiation on cell viability (4T1-HER2 cells [4]) | apoptotic activity (Annexin V) (4T1-HER2 cells [5]) |
| --- | --- | --- | --- | --- | --- | --- |
| O=c1ccc2cc3ccoc3cc2o1 [psoralen] | reduce viable cells | reduce viable cells | reduce viable cells |  |  |  |
| COc1c2occc2cc2ccc(=O)oc12 [UVADEX, 8-methoxypsoralen] |  |  |  | little effect | no significant effect on cell viability | negligible apoptotic activity |
